The target in the assay is T1, hTDO2 (Homo sapiens, UniProt P48775).
T1 construct: endogenous in cells; host or cells: A172 human brain glioblastoma cells (ATCC CRL-1620)
T1 sequence (P48775 whole entry): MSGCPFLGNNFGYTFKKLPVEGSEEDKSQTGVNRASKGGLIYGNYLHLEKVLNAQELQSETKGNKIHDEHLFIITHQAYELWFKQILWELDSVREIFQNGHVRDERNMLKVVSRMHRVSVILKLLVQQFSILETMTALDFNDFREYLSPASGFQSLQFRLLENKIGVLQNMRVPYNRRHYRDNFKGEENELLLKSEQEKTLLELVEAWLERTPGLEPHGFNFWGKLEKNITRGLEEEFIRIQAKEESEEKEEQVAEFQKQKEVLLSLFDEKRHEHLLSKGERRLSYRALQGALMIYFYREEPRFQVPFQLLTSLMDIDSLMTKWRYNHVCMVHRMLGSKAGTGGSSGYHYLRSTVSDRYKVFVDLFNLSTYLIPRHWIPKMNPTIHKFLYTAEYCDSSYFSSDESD
The experiment in a line: Cellular assay for TDO2 activity determination in A172 cells. In kind it is cell-based. Conditions: human glioblastoma A172 cells naturally expressing hTDO2; overnight incubation; kynurenine by absorbance at 480 nm. The method, boiled down: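 A172 glioblastoma cells endogenously expressing hTDO2, 1.25×10^4 cells/well, incubated overnight at 37 °C, 5% CO2 in IMDM with 2% FBS and ten compound concentrations. Supernatant kynurenine measured after TCA treatment and Ehrlich's reagent (4-dimethylaminobenzaldehyde) by absorbance at 480 nm against a kynurenine standard curve, then curve-fitted.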
`CNC(=O)C(N)CN1C(C)c2cc(-c3c[nH]c4cc(F)ccc34)ccc2S1(=O)=O` (single isomer, unassigned; (+)) [Example 102, (+)-2-amino-3-(5-(6-fluoro-1H-indol-3-yl)-3-methyl-1,1-dioxidobenzo[d]isothiazol-2(3H)-yl)-N-methylpropanamide]: the half-maximal inhibitory concentration (IC50) (as a rule, the concentration that gives 50% inhibition) came to 114 nM. With `CC1c2cc(-c3c[nH]c4cc(F)ccc34)ccc2S(=O)(=O)N1CCC(N)=O` (single isomer, unassigned; (-)) [Example 48, (−)-3-(5-(6-fluoro-1H-indol-3-yl)-3-methyl-1,1-dioxidobenzo[d]isothiazol-2(3H)-yl)propanamide], inhibition was half-maximal at 77 nM (IC50). Next, `C[C@H]1NS(=O)(=O)c2ccc(-c3c[nH]c4cc(F)ccc34)cc21` (single isomer, unassigned) [Example 1, (+)-5-(6-fluoro-1H-indol-3-yl)-3-methyl-2,3-dihydro-1,2-benzothiazole 1,1-dioxide]: 27 nM; `NCCN1Cc2cc(-c3c[nH]c4cc(F)ccc34)ccc2S1(=O)=O` [Example 31, 2-(2-aminoethyl)-5-(6-fluoro-1H-indol-3-yl)-2,3-dihydrobenzo[d]isothiazole 1,1-dioxide]: 221 nM; `CC1c2cc(-c3c[nH]c4cc(F)ccc34)ccc2S(=O)(=O)N1C1CNC(=O)C1` (single isomer, unassigned; (+)) [Example 126, (+)-4-(5-(6-fluoro-1H-indol-3-yl)-3-methyl-1,1-dioxidobenzo[d]isothiazol-2(3H)-yl)pyrrolidin-2-one]: 77 nM.

Molecule `CN(C)CC1NS(=O)(=O)c2ccc(-c3c[nH]c4cc(F)ccc34)cc21` (single isomer, unassigned; (-)) [Example 25, (−)-3-((dimethylamino)methyl)-5-(6-fluoro-1H-indol-3-yl)-2,3-dihydrobenzo[d]isothiazole 1,1-dioxide] gave an IC50 of 4980 nM. Next, `CC1c2cc(-c3c[nH]c4cc(F)ccc34)ccc2S(=O)(=O)N1C[C@]1(C)CCC(=O)N1` (single isomer, unassigned; (+)) [Example 82]: 61 nM; `C[C@@H]1NS(=O)(=O)c2ccc(-c3c[nH]c4cc(F)ccc34)cc21` (single isomer, unassigned) [Example 2, (−)-5-(6-fluoro-1H-indol-3-yl)-3-methyl-2,3-dihydro-1,2-benzothiazole 1,1-dioxide]: 110 nM.

On to `CNC(=O)C(C)N1C(C)c2cc(-c3c[nH]c4cc(F)ccc34)ccc2S1(=O)=O` (single isomer, unassigned) [Example 147, 2-(5-(6-fluoro-1H-indol-3-yl)-3-methyl-1,1-dioxidobenzo[d]isothiazol-2(3H)-yl)-N-methylpropanamide], for which half-maximal inhibition (IC50) was put at 59 nM. `CC1c2cc(-c3c[nH]c4cc(F)ccc34)ccc2S(=O)(=O)N1CCN1CCOC1=O` (single isomer, unassigned; (+)) [Example 69, (+)-3-(2-(5-(6-fluoro-1H-indol-3-yl)-3-methyl-1,1-dioxidobenzo[d]isothiazol-2(3H)-yl)ethyl)oxazolidin-2-one] yielded an IC50 of 264 nM. The result for `CC1c2cc(-c3c[nH]c4cc(F)ccc34)ccc2S(=O)(=O)N1CCC(N)=O` (single isomer, unassigned; (+)) [Example 47, (+)-3-(5-(6-fluoro-1H-indol-3-yl)-3-methyl-1,1-dioxidobenzo[d]isothiazol-2(3H)-yl)propanamide] reads 199 nM; that for `CC1c2cc(-c3c[nH]c4cc(F)ccc34)ccc2S(=O)(=O)N1C[C@H](O)CO` (single isomer, unassigned; (+)) [Example 96], 30 nM.

`CC1c2cc(-c3c[nH]c4cc(F)ccc34)ccc2S(=O)(=O)N1CCS(N)(=O)=O` (single isomer, unassigned; (-)) [Example 62, (−)-2-(5-(6-fluoro-1H-indol-3-yl)-3-methyl-1,1-dioxidobenzo[d]-isothiazol-2(3H)-yl)ethane-1-sulfonamide] displayed an IC50 of 67 nM. Regarding `CC1c2cc(-c3c[nH]c4cc(F)ccc34)ccc2S(=O)(=O)N1CC[S+](C)[O-]` (single isomer, unassigned; (+)) [Example 55, (+)-5-(6-fluoro-1H-indol-3-yl)-3-methyl-2-(2-(methylsulfinyl)ethyl)-2,3-dihydrobenzo[d]isothiazole 1,1-dioxide], 76 nM corresponded to half-maximal inhibition (IC50). Turning to `CNC(=O)C(CN1C(C)c2cc(-c3c[nH]c4cc(F)ccc34)ccc2S1(=O)=O)OC` (single isomer, unassigned; (-)) [Example 108, (−)-3-(5-(6-fluoro-1H-indol-3-yl)-3-methyl-1,1-dioxidobenzo[d]isothiazol-2(3H)-yl)-2-methoxy-N-methylpropanamide], the IC50 came out at 93 nM. The result for `Cn1cnc(CN2C(CO)c3cc(-c4c[nH]c5cc(F)ccc45)ccc3S2(=O)=O)n1` (single isomer, unassigned; (-)) [Example 129, (−)-5-(6-fluoro-1H-indol-3-yl)-3-(hydroxymethyl)-2-((1-methyl-1H-1,2,4-triazol-3-yl)methyl)-2,3-dihydrobenzo[d]isothiazole 1,1-dioxide] reads 39 nM; that for `CNC(=O)C(N)CN1C(C)c2cc(-c3c[nH]c4cc(F)ccc34)ccc2S1(=O)=O` (single isomer, unassigned; (-)) [Example 103, (−)-2-amino-3-(5-(6-fluoro-1H-indol-3-yl)-3-methyl-1,1-dioxidobenzo[d]isothiazol-2(3H)-yl)-N-methylpropanamide], 413 nM. Molecule `CC1c2cc(-c3c[nH]c4cc(F)ccc34)ccc2S(=O)(=O)N1CC[S+](C)[O-]` (single isomer, unassigned; (-)) [Example 56, (−)-5-(6-fluoro-1H-indol-3-yl)-3-methyl-2-(2-(methylsulfinyl)ethyl)-2,3-dihydrobenzo[d]isothiazole 1,1-dioxide] had an IC50 of 306 nM. `CC1c2cc(-c3c[nH]c4cc(F)ccc34)ccc2S(=O)(=O)N1C1CCNC(=O)C1` (single isomer, unassigned; (-)) [Example 122, (−)-4-(-5-(6-fluoro-1H-indol-3-yl)-3-methyl-1,1-dioxidobenzo[d]isothiazol-2(3H)-yl)piperidin-2-one]: inhibition was half-maximal at 54 nM (IC50). Compared with the last molecule, the IC50 is about 5.7-fold lower. Next, `NC(=O)C1NS(=O)(=O)c2ccc(-c3c[nH]c4cc(F)ccc34)cc21` (single isomer, unassigned; (+)) [Example 16, (+)-5-(6-fluoro-1H-indol-3-yl)-2,3-dihydrobenzo[d]-isothiazole-3-carboxamide 1,1-dioxide]: 1380 nM; `CC1c2cc(-c3c[nH]c4cc(F)ccc34)ccc2S(=O)(=O)N1CCN1CCOCC1` (single isomer, unassigned; (-)) [Example 117, (−)-5-(6-fluoro-1H-indol-3-yl)-3-methyl-2-(2-morpholinoethyl)-2,3-dihydrobenzo[d]isothiazole 1,1-dioxide]: 308 nM; `CN(C)CCN1Cc2cc(-c3c[nH]c4cc(F)ccc34)ccc2S1(=O)=O` [Example 32, 2-(2-(dimethylamino)ethyl)-5-(6-fluoro-1H-indol-3-yl)-2,3-dihydrobenzo[d]isothiazole 1,1-dioxide]: 230 nM.

As to `O=S1(=O)NC(C2CC2)c2cc(-c3c[nH]c4cc(F)ccc34)ccc21` (single isomer, unassigned; (+)) [Example 10, (+)-3-cyclopropyl-5-(6-fluoro-1H-indol-3-yl)-2,3-dihydrobenzo[d]isothiazole 1,1-dioxide], the concentration for half-maximal inhibition (IC50) stood at 240 nM. The result for `O=S1(=O)c2ccc(-c3c[nH]c4cc(F)ccc34)cc2CN1C1CCNCC1` [Example 36, 5-(6-fluoro-1H-indol-3-yl)-2-(piperidin-4-yl)-2,3-dihydrobenzo[d]isothiazole 1,1-dioxide] reads 192 nM; that for `CNC(=O)C(C)N1C(C)c2cc(-c3c[nH]c4cc(F)ccc34)ccc2S1(=O)=O` (single isomer, unassigned; (-)) [Example 145, (−)-2-(5-(6-fluoro-1H-indol-3-yl)-3-methyl-1,1-dioxidobenzo[d]isothiazol-2(3H)-yl)-N-methylpropanamide], 92 nM; that for `CNC(=O)C(C)N1C(C)c2cc(-c3c[nH]c4cc(F)ccc34)ccc2S1(=O)=O` (single isomer, unassigned; (+)) [Example 146, (+)-2-(5-(6-fluoro-1H-indol-3-yl)-3-methyl-1,1-dioxidobenzo[d]isothiazol-2(3H)-yl)-N-methylpropanamide], 54 nM. For `CC1c2cc(-c3c[nH]c4cc(F)ccc34)ccc2S(=O)(=O)N1CCN1CCNCC1=O` (single isomer, unassigned; (-)) [Example 65, (−)1-(2-(5-(6-fluoro-1H-indol-3-yl)-3-methyl-1,1-dioxidobenzo[d]isothiazol-2(3H)-yl)ethyl)piperazin-2-one], the IC50 stood at 546 nM. In the case of `C[S+]([O-])CCN1Cc2cc(-c3c[nH]c4cc(F)ccc34)ccc2S1(=O)=O` (single isomer, unassigned; (+)) [Example 42, (+)-5-(6-fluoro-1H-indol-3-yl)-2-(2-(methylsulfinyl)ethyl)-2,3-dihydrobenzo[d]isothiazole 1,1-dioxide], the IC50 came out at 142 nM. The result for `CCOC(=O)NCCN1C(C)c2cc(-c3c[nH]c4cc(F)ccc34)ccc2S1(=O)=O` (single isomer, unassigned; (-)) [Example 109, (−)-ethyl (2-(5-(6-fluoro-1H-indol-3-yl)-3-methyl-1,1-dioxidobenzo[d]isothiazol-2(3H)-yl)ethyl)carbamate] reads 345 nM. The result for `CC1c2cc(-c3c[nH]c4cc(F)ccc34)ccc2S(=O)(=O)N1CCC(=O)N1CCNCC1` (single isomer, unassigned; (+)) [Example 49, (+)-3-(5-(6-fluoro-1H-indol-3-yl)-3-methyl-1,1-dioxido-benzo [d]isothiazol-2(3H)-yl)-1-(piperazin-1-yl)propan-1-one] reads 91 nM.

The values are drawn from US9873690B2, “3-indol substituted derivatives, pharmaceutical compositions and methods for use” (Pfizer Inc., priority 2015, dated 2018).
